Laboratory results as given in the supplement of paper PMC10307832.

Key:
Test in all cases: relative viability (nuclei count vs DMSO), 5 days (fraction); higher = more cells survive
[1] = system: NCI-H23
How it was run: (§1)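 One day after seeding in 1536-well plates, lung cancer cell lines were dosed by pin tool. Dosing was either single-drug or a fixed anchor-drug dose plus five library-drug doses (not always all listed) in √10 steps. After 5 days, nuclei were stained in one fix-and-stain step and counted on 4× images, and relative viability is the nuclei count of treated wells over that of vehicle wells, given as the median of duplicate plates.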

[2] = system: NCI-H1975
How it was run: as §1

[3] = system: IA-LM
How it was run: as §1

[4] = system: EBC-1
How it was run: as §1

[5] = system: NCI-H647
How it was run: as §1

[6] = system: HCC-78
How it was run: as §1

[7] = system: RERF-LC-KJ
How it was run: as §1

[8] = system: NCI-H1793
How it was run: as §1

[9] = system: LOU-NH91
How it was run: as §1

[10] = system: NCI-H1792
How it was run: as §1

[11] = system: EPLC-272H
How it was run: as §1

[12] = system: NCI-H1395
How it was run: as §1

[13] = system: NCI-H1651
How it was run: as §1

[14] = system: 201T
How it was run: as §1

[15] = system: NCI-H1437
How it was run: as §1

[16] = system: NCI-H1915
How it was run: as §1

[17] = system: UMC-11
How it was run: as §1

[18] = system: EMC-BAC-2
How it was run: as §1

[19] = system: SK-LU-1
How it was run: as §1

[20] = system: NCI-H2405
How it was run: as §1

[21] = system: NCI-H2023
How it was run: as §1

CCCCCCCCCCCC1=C(O)C(=O)C=C(O)C1=O [Embelin] + CC1(C)CCC(c2ccc(Cl)cc2)=C(CN2CCN(c3ccc(C(=O)NS(=O)(=O)c4ccc(N[C@H](CCN5CCOCC5)CSc5ccccc5)c(S(=O)(=O)C(F)(F)F)c4)cc3)CC2)C1 [Navitoclax] (partner 0.5 µM)
relative viability ([1]; first compound 0.08 µM): 0.848 | relative viability ([1]; first compound 0.8 µM): 0.904 | relative viability ([1]; first compound 2.53 µM): 0.884 | relative viability ([1]; first compound 8 µM): 0.74 | relative viability ([2]; first compound 0.08 µM): 1.13 | relative viability ([2]; first compound 0.8 µM): 1.29 | relative viability ([2]; first compound 2.53 µM): 1.13 | relative viability ([2]; first compound 8 µM): 1.11 | relative viability ([3]; first compound 0.08 µM): 1.03 | relative viability ([3]; first compound 0.8 µM): 0.87 | relative viability ([3]; first compound 2.53 µM): 0.92 | relative viability ([3]; first compound 8 µM): 0.305 | relative viability ([4]; first compound 0.08 µM): 0.439 | relative viability ([4]; first compound 0.8 µM): 0.426 | relative viability ([4]; first compound 2.53 µM): 0.425 | relative viability ([4]; first compound 8 µM): 0.404 | relative viability ([5]; first compound 0.08 µM): 1.25 | relative viability ([5]; first compound 0.8 µM): 1.35 | relative viability ([5]; first compound 2.53 µM): 1.21 | relative viability ([5]; first compound 8 µM): 1.2 | relative viability ([6]; first compound 0.08 µM): 0.797 | relative viability ([6]; first compound 0.8 µM): 0.931 | relative viability ([6]; first compound 2.53 µM): 0.863 | relative viability ([6]; first compound 8 µM): 0.762 | relative viability ([7]; first compound 0.08 µM): 0.963 | relative viability ([7]; first compound 0.8 µM): 1.14 | relative viability ([7]; first compound 2.53 µM): 0.808 | relative viability ([7]; first compound 8 µM): 0.821 | relative viability ([8]; first compound 0.08 µM): 0.461 | relative viability ([8]; first compound 0.8 µM): 0.46 | relative viability ([8]; first compound 2.53 µM): 0.498 | relative viability ([8]; first compound 8 µM): 0.369 | relative viability ([9]; first compound 0.08 µM): 0.77 | relative viability ([9]; first compound 0.8 µM): 1.02 | relative viability ([9]; first compound 2.53 µM): 0.837 | relative viability ([9]; first compound 8 µM): 0.637 | relative viability ([10]; first compound 0.08 µM): 0.593 | relative viability ([10]; first compound 0.8 µM): 0.649 | relative viability ([10]; first compound 2.53 µM): 0.892 | relative viability ([10]; first compound 8 µM): 0.669 | relative viability ([11]; first compound 0.08 µM): 1.07 | relative viability ([11]; first compound 0.8 µM): 1.34 | relative viability ([11]; first compound 2.53 µM): 1.21 | relative viability ([11]; first compound 8 µM): 1.11 | relative viability ([12]; first compound 0.08 µM): 1.18 | relative viability ([12]; first compound 0.8 µM): 1.42 | relative viability ([12]; first compound 2.53 µM): 1.18 | relative viability ([12]; first compound 8 µM): 0.982 | relative viability ([13]; first compound 0.08 µM): 0.926 | relative viability ([13]; first compound 0.8 µM): 1.19 | relative viability ([13]; first compound 2.53 µM): 1.02 | relative viability ([13]; first compound 8 µM): 1.09 | relative viability ([14]; first compound 0.08 µM): 1.18 | relative viability ([14]; first compound 0.8 µM): 1.19 | relative viability ([14]; first compound 2.53 µM): 1.19 | relative viability ([14]; first compound 8 µM): 1.17 | relative viability ([15]; first compound 0.08 µM): 1.07 | relative viability ([15]; first compound 0.8 µM): 1.14 | relative viability ([15]; first compound 2.53 µM): 1.11 | relative viability ([15]; first compound 8 µM): 0.707 | relative viability ([16]; first compound 0.08 µM): 0.822 | relative viability ([16]; first compound 0.8 µM): 0.784 | relative viability ([16]; first compound 2.53 µM): 0.793 | relative viability ([16]; first compound 8 µM): 0.796 | relative viability ([17]; first compound 0.08 µM): 0.328 | relative viability ([17]; first compound 0.8 µM): 0.32 | relative viability ([17]; first compound 2.53 µM): 0.319 | relative viability ([17]; first compound 8 µM): 0.289 | relative viability ([18]; first compound 0.08 µM): 1.17 | relative viability ([18]; first compound 0.8 µM): 1.17 | relative viability ([18]; first compound 2.53 µM): 1.33 | relative viability ([18]; first compound 8 µM): 1.3 | relative viability ([19]; first compound 0.08 µM): 0.808 | relative viability ([19]; first compound 0.8 µM): 1.16 | relative viability ([19]; first compound 2.53 µM): 0.786 | relative viability ([19]; first compound 8 µM): 0.832 | relative viability ([20]; first compound 0.08 µM): 0.986 | relative viability ([20]; first compound 0.8 µM): 1.41 | relative viability ([20]; first compound 2.53 µM): 0.875 | relative viability ([20]; first compound 8 µM): 0.906 | relative viability ([21]; first compound 0.08 µM): 1.05 | relative viability ([21]; first compound 0.8 µM): 1.05 | relative viability ([21]; first compound 2.53 µM): 1.02 | relative viability ([21]; first compound 8 µM): 0.689
